From EP3733658B1, “PRENYLATED BENZOPYRANES AS PPAR AGONISTS” (Universitat de València, priority 2017, dated 2019)

Tested on: MCP-1
Assay: Treatment of ob/ob mice: MCP-1 mRNA in WAT by real-time PCR
Type: in vivo
Conditions: oral, 30 mg/Kg/d, 4 days
Description: 6 animals were used in each group in independent experiments (n=6).
The total RNA was extracted from mouse WAT by homogenization. Reverse transcription was performed with 1000 ng of total RNA using the inverse transcription kit TaqMan (Applied Biosystems, Thermo Fisher Scientific, Waltham, MA) and converted to cDNA by standard methods. The cDNA was amplified with specific feeders for the mouse monocytic chemoattractant protein 1 (MCP-1 or CCL2, Mm00441242_m1) in a Real Time PCR 7900HT apparatus (Applied Biosystems, Thermo Fisher Scientific, Waltham, MA) using Universal Master Mix (Applied Biosystems, Thermo Fisher Scientific, Waltham, MA). All feeders were designed by Applied Biosystems. The relative quantification of the various transcriptions was determined by the 2^-ΔΔCt method using GAPDH (Applied Biosystems, Thermo Fisher Scientific, Waltham, MA) as endogenous and normalized control for the control group.

SMILES: CCOC(=O)CCC(C)=CCCC1(C)CCc2cc(OCc3ccc(F)cc3)ccc2O1 (stereo not shown) [Compound 9]
- expression of MCP-1 in WAT: significantly reduced
